pIC50, pKi: −log10 of the molar value. One block for each compound: values may come before it.
Assays:
MV4-11 [1] = experiment: Antiproliferative activity against human MV4-11 cells by CCK-8 assay; type: functional, cell-based
Interleukin-1 beta = target: T1, Interleukin-1 beta (Mus musculus, UniProt P10749); experiment: Inhibition of IL-1beta in mouse BMDM cells; type: cell-based
T1 sequence (P10749 whole entry): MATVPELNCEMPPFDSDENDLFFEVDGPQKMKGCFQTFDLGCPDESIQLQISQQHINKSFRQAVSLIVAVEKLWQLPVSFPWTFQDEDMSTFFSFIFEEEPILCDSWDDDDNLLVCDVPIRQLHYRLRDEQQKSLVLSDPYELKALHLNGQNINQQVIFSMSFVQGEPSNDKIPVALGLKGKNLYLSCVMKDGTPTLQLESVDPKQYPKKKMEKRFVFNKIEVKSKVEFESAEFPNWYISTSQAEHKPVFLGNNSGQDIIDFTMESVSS

[2] = target: T2, Bromodomain-containing protein 4 (Homo sapiens, UniProt O60885); experiment: Binding affinity to BRD4-BD2 (unknown origin)
[3] = target: T2, Bromodomain-containing protein 4; experiment: Binding affinity to BRD4-BD1 (unknown origin)
MV4-11 [4] = experiment: Antiproliferative activity against human MV4-11 cells by Cell Titer Glo assay; type: functional, cell-based

pIC50 (MV4-11 [1]): 4.52
Structure (SMILES): O=c1cc(-c2ccc(O)c(O)c2)oc2c(O)c(O)ccc12

pIC50 (Interleukin-1 beta): 5.68
Structure (SMILES): COc1cc(OC)c2c(=O)[nH]c(-c3cc(C)c(OCCN4CCCC4)c(C)c3)nc2c1

pKi [2]: 8.89
pKi [3]: 7.10
Structure (SMILES): CCNC(=O)C1=CC2C(c3cc(S(=O)(=O)CC)ccc3Oc3c(C)cc(F)cc3C)=CN(C)C(=O)C2N1 (stereo not given)

pIC50 (MV4-11 [4]): 8.10
Structure (SMILES): CC(=O)N1c2ccc(-c3cc[nH]n3)cc2[C@H](Nc2ccc(C#N)cc2)C[C@@H]1C

Reference: ChEMBL document CHEMBL5120801, “Targeting Bromodomain-Selective Inhibitors of BET Proteins in Drug Discovery and Development” (J Med Chem, 2022)
